Assay results taken from patent US20090105237A1, “Cooling compounds” (priority 2005, published 2009).

Assays:
Format in all cases: in vivo
mouth [1] = assay: Application in chewing gum: gum stick chewed by a panelist for 15 minutes and spit out
Method: All the ingredients are mixed in the prewarmed gum base. The mixture is spread in thick films, cooled down and cut in sticks. A gum stick is chewed by a panelist for 15 minutes and spit out. […] When spit out, the cooling sensation becomes intense and lasts for several hours

panelists = assay: Panel tasting of solutions of cooling compounds: concentration with cooling intensity similar or slightly higher than menthol at 2 ppm; settings: solution with cooling intensity similar or slightly higher than a solution of menthol at 2 ppm; small group of panelists
mouth [2] = assay: Application in toothpaste: panelist's teeth brushed with toothgel, mouth rinsed with water
Excerpt: The chemicals are mixed in the toothgel, a piece of toothgel was put on a toothbrush and a panelist's teeth were brushed. The mouth was rinsed with water and the water was spit out. […] The cooling perception lasted for several hours.

| SMILES | Concentration (panelists) [ppm] | other results |
| --- | --- | --- |
| CC1CCC(C(C)C)C(C(=O)Nc2ccc(C(N)=O)cc2)C1 (stereo not drawn) [Example 1, N-(4-carboxamidophenyl) p-menthanecarboxamide] | 0.15 | cooling sensation when spit out (mouth [1]; chewing gum with 0.100 g compound per about 100 g, with peppermint oil, after 15 minutes of chewing): intense; cooling sensation when chewed (mouth [1]; chewing gum with 0.100 g compound per about 100 g, with peppermint oil, chewed 15 minutes, all areas of the mouth): agreeable cooling sensation; duration of cooling sensation (mouth [1]; chewing gum, after it is spit out): several hours |
| CC1CCC(C(C)C)C(O)C1 (stereo not drawn) [Example 1-Menthol, 1-Menthol, reference compound] | 2.0 | – |
| CC1CCC(C(C)C)C(C(=O)Nc2cccc(C(N)=O)c2)C1 (stereo not drawn) [Example 2, N-(3-carboxamidophenyl) p-menthanecarboxamide] | 0.2 | – |
| CC1CCC(C(C)C)C(C(=O)Nc2ccccc2C(N)=O)C1 (stereo not drawn) [Example 3, N-(2-carboxamidophenyl) p-menthanecarboxamide] | 0.5 | cooling sensation after brushing (mouth [2]; 0.500 g of a 5% gel in peppermint oil in 99.500 g opaque toothgel, after rinsing, all areas of the mouth): intense cooling sensation; duration of cooling perception (mouth [2]; toothgel, after brushing and rinsing): several hours |
| COCCNC(=O)c1ccc(NC(=O)C2CC(C)CCC2C(C)C)cc1 (stereo not drawn) [Example 4, 4-[p-menthanecarbonyl-amino]-N-(2-methoxy-ethyl)-benzamide] | 0.25 | – |
| CC1CCC(C(C)C)C(C(=O)Nc2ccc(C(=O)N3CCN(C)CC3)cc2)C1 (stereo not drawn) [Example 5, N-(4-(4-methylpiperazine-1-carbonyl)phenyl) p-menthanecarboxamide] | 0.4 | – |
| CCNC(=O)C1CC(C)CCC1C(C)C (stereo not drawn) [N-ethyl p-menthanecarboxamide (WS-3), N-ethyl p-menthanecarboxamide, reference compound] | 1.5 | – |
